In paper PMC7971191 (Journal of medicinal chemistry, 2020):

Tests used:
[1] = test system: wild-type HIV-1 (NL4-3 strain); assay: Cell-based antiviral assay; details: for fold less active than 12a in antiviral assays: compared with 12a
[2] = molecular target: wild-type HIV-1 protease (Human immunodeficiency virus type 1 group M subtype B, UniProt P12497, Q495K); format: biochemical, HIV-1 (NL4-3 strain); details: for fold less active than the corresponding tert-leucine analogue: 12b vs 12a, 15b vs 15a, inhibitory potency
[3] = molecular target: HIV-1 protease I50V/A71V (Human immunodeficiency virus type 1 group M subtype B, UniProt P12497, A559V/I538V/Q495K); format: biochemical, HIV-1 (NL4-3 strain); details: Ki compared with 12a

## Cc1cccc(C)c1OCC(=O)N[C@@H](Cc1ccccc1)C[C@H](O)[C@H](Cc1ccccc1)NC(=O)O[C@H]1CO[C@H]2OCC[C@H]21 [Compound 5, reference compound]
[1]; compared with compound 4
  fold better antiviral potency than 4: 2 fold

## COC(=O)N[C@H](C(=O)N[C@@H](Cc1ccccc1)[C@@H](O)C[C@H](Cc1ccccc1)NC(=O)O[C@H]1CO[C@H]2OCC[C@H]21)C(C)(C)C [Compound 12a, (3R,3aS,6aR)-Hexahydrofuro[2,3-b]furan-3-yl ((2S,4S,5S)-4-hydroxy-5-((S)-2-((methoxycarbonyl)amino)-3,3-dimethylbutanamido)-1,6-diphenylhexan-2-yl)carbamate]
[1]; wild-type HIV-1, compared with 15a
  fold more potent than 15a in antiviral assays: 3 fold

## COC(=O)NC1(C(=O)N[C@@H](Cc2ccccc2)[C@@H](O)C[C@H](Cc2ccccc2)NC(=O)O[C@H]2CO[C@H]3OCC[C@H]32)CCCC1 [Compound 12b, (3R,3aS,6aR)-Hexahydrofuro[2,3-b]furan-3-yl ((2S,4S,5S)-4-hydroxy-5-(1-((methoxycarbonyl)amino)cyclopentane-1-carboxamido)-1,6-diphenylhexan-2-yl)carbamate]
[2]
  fold less active than the corresponding tert-leucine analogue: > 2500 fold

## COC(=O)N[C@@H](C)C(=O)N[C@@H](Cc1ccccc1)[C@@H](O)C[C@H](Cc1ccccc1)NC(=O)O[C@H]1CO[C@H]2OCC[C@H]21 [Compound 12d, (3R,3aS,6aR)-Hexahydrofuro[2,3-b]furan-3-yl ((2S,4S,5S)-4-hydroxy-5-((S)-2-((methoxycarbonyl)amino)propanamido)-1,6-diphenylhexan-2-yl)carbamate]
[1]
  fold less active than 12a in antiviral assays: 6 fold

## COC(=O)N[C@H](C(=O)N[C@@H](Cc1ccccc1)[C@@H](O)C[C@H](Cc1ccccc1)NC(=O)O[C@H]1CO[C@H]2OCC[C@H]21)C(C)C [Compound 12e, (3R,3aS,6aR)-Hexahydrofuro[2,3-b]furan-3-yl ((2S,4S,5S)-4-hydroxy-5-((S)-2-((methoxycarbonyl)amino)-3-methylbutanamido)-1,6-diphenylhexan-2-yl)carbamate]
[2]; valine analogue compared with alanine analogue 12d / 12a
  fold less active against wild-type protease: 4 fold
[1]
  fold less active than 12a in antiviral assays: 5 fold

## COC(=O)N[C@H](C(=O)N[C@@H](Cc1ccccc1)C[C@H](O)[C@H](Cc1ccccc1)NC(=O)O[C@H]1CO[C@H]2OCC[C@H]21)C(C)(C)C [Compound 15a, (3R,3aS,6aR)-Hexahydrofuro[2,3-b]furan-3-yl ((2S,3S,5S)-3-hydroxy-5-((S)-2-((methoxycarbonyl)amino)-3,3-dimethylbutanamido)-1,6-diphenylhexan-2-yl)carbamate]
[3]
  fold more active than 12a against the I50V/A71V variant: 4 fold

## COC(=O)NC1(C(=O)N[C@@H](Cc2ccccc2)C[C@H](O)[C@H](Cc2ccccc2)NC(=O)O[C@H]2CO[C@H]3OCC[C@H]32)CCCC1 [Compound 15b, (3R,3aS,6aR)-Hexahydrofuro[2,3-b]furan-3-yl ((2S,3S,5S)-3-hydroxy-5-(1-((methoxycarbonyl)amino)cyclopentane-1-carboxamido)-1,6-diphenylhexan-2-yl)carbamate]
[2]
  fold less active than the corresponding tert-leucine analogue: 560 fold
